Experiments:
taste testers [1] = assay: Determination of the taste quality; type: in vivo
Experimental: The tests were performed in analogy to the method of DuBois, G. A. Crosby, R. A. Stephanson and R. E. Wingard Jr., J. Agric. […] The test compounds were used as aqueous solutions at a concentration which corresponds to an about 5% saccharose solution. As comparison compound saccharose was used. The tests were carried out under identical conditions. Only the characterization of the taste was evaluated, because the intensity was already determined in the preceding experiments. The following criteria were determined by each tester: Percentage sweet to percentage bitter to percentage another taste quality. Furthermore, the presence or absence of an after taste of the individual test compounds was determined. Each substance was tested twice with regard to five different determinations.

taste testers [2] = assay: Determination of the relative sweetening power in comparison to saccharose; type: in vivo; conditions: compared with 3% aqueous solution of saccharose
Text: The relative sweetening power (often also defined as degree of sweetness) of sweetening agents in comparison with saccharose (cane sugar) varies considerably with concentration. […] Therefore, for the determination of the relative sweetening power of the test compounds a 3% aqueous solution of saccharose was always used for comparison.

taste testers [3] = assay: Determination of the threshold concentration (sweet taste); type: in vivo
Experimental: Aqueous solutions having concentrations of 1:12,500, 1:25,000, 1:50,000, and 1:100,000 were prepared of test compounds A, B and C and of comparison compounds X, Y and Z, and each was evaluated at 5 taste testers according to the following scoring system: Very sweet (=3 points), medium sweet (=2 points), weakly sweet (=1 point), and not sweet (=0 point). The tests were carried out as described by H. G. Schutz and F. J. Pilgrim in Food Research 22, 206 (1957). The dilution perceptible as sweet was defined as having the concentration at which the average value of the evaluation points reached 1.0 or more.

[4] = prior knowledge; cited from earlier work
taste testers [5] = conditions: prior knowledge; cited from earlier work
taste testers [6] = conditions: prior knowledge; cited from earlier work; remark: listed apart in the source
[7] = Batzinger et al., Science 198, 944 (1977); cited from earlier work
thrombocyte aggregation = assay: Effect on thrombocyte aggregation induced by collagen; type: cell-based; conditions: read-out: Change in % max. aggregation rate
Experimental: The thrombocyte aggregation was measured according to Born and Cross [J. Physiol. 170, 397 (1964)] in platelet-rich plasma obtained by centrifuging citrate blood. The change in the maximum aggregation rate in % compared with a control, and the percent change in the "optical density" were the measured parameters. The aggregation was induced by collagen.

For OC[C@H]1O[C@@](CO)(O[C@H]2O[C@H](CO)[C@@H](O)[C@H](O)[C@H]2O)[C@@H](O)[C@@H]1O [Saccharose, saccharose, reference compound], the After taste (taste testers [1]; 1:20, 10 determinations) was 4, the Percentage bitter (taste testers [1]; 1:20, 10 determinations) was 0% and the Percentage other taste (taste testers [1]; 1:20, 10 determinations) was 2%. The Percentage sweet (taste testers [1]; 1:20, 10 determinations) was 98%.
With O=C1NS(=O)(=O)c2cccc(O)c21 [Substance A, 4-hydroxy-1,2-benzisothiazol-3(2H)-one-1,1-dioxide] the “purity of the taste” value (taste testers [1]) was 94-96%, the After taste (taste testers [1]; 1:10000, 10 determinations) was 3 and the Percentage bitter (taste testers [1]; 1:10000, 10 determinations) was 2%. For the same compound, the Percentage other taste (taste testers [1]; 1:10000, 10 determinations) was 4%, the Percentage sweet (taste testers [1]; 1:10000, 10 determinations) was 94% and the “Relative sweetening power (Saccharose = 1)” value (from here on “Relative sweetening power”) (taste testers [2]) was 210. The “Average value of evaluation points” value (taste testers [3]; concentration 1:25000) was 2.4 points, the “Average value of evaluation points” value (taste testers [3]; concentration 1:50000) was 1.0 points and the “Average value of evaluation points” value (taste testers [3]; concentration 1:100000) was 0.2 points.
With O=C1NS(=O)(=O)c2cc(O)cc(O)c21 [Substance C, 4,6-Dihydroxy-1,2-benzoisothiazol-3(2H)-one-1,1-dioxide] the “purity of the taste” value (taste testers [1]) was 86%, the After taste (taste testers [1]; 1:10000, 10 determinations) was 8 and the Percentage bitter (taste testers [1]; 1:10000, 10 determinations) was 3%. The Percentage other taste (taste testers [1]; 1:10000, 10 determinations) was 11%, the Percentage sweet (taste testers [1]; 1:10000, 10 determinations) was 86% and the “Relative sweetening power” value (taste testers [2]) was 180. For the same compound, the “Average value of evaluation points” value (taste testers [3]; concentration 1:25000) was 1.8 points, the “Average value of evaluation points” value (taste testers [3]; concentration 1:50000) was 1.0 points and the “Average value of evaluation points” value (taste testers [3]; concentration 1:100000) was 0.0 points.
In the case of O=S(=O)(O)NC1CCCCC1 [X, cyclamate, reference compound], the “toxicological tests at higher dosages” value [4] is given as “not without objection”, the “Relative sweetening power” value (taste testers [2]) is given as 45 and the “sweetening power compared with saccharose (in words)” value (taste testers [5]) is given as “much better than that of the saccharose”. The “Average value of evaluation points” value (taste testers [3]; concentration 1:12500) was 0.6 points, the “Average value of evaluation points” value (taste testers [3]; concentration 1:25000) was 0.2 points and the “Average value of evaluation points” value (taste testers [3]; concentration 1:50000) was 0.0 points.
In the case of O=C1NS(=O)(=O)c2ccccc21 [Y, saccharine, reference compound], the “after taste and concurrent taste” value (taste testers [6]) is listed as “metallic, bitter after taste and the bitter concurrent taste”, the “taste profile compared with saccharose” value (taste testers [1]) is listed as “not even approached” and the After taste (taste testers [1]; 1:10000, 10 determinations) is listed as 80. It also gave a Percentage bitter (taste testers [1]; 1:10000, 10 determinations) of 21%, a Percentage other taste (taste testers [1]; 1:10000, 10 determinations) of 7% and a Percentage sweet (taste testers [1]; 1:10000, 10 determinations) of 72%. For the same compound, the mutagenic effect [7] was “shows a mutagenic effect”, the “sweetening power compared with saccharose (in words)” value (taste testers [5]) was “much better than that of the saccharose” and the “Average value of evaluation points” value (taste testers [3]; concentration 1:25000) was 2.4 points. The “Average value of evaluation points” value (taste testers [3]; concentration 1:50000) was 1.2 points and the “Average value of evaluation points” value (taste testers [3]; concentration 1:100000) was 0.4 points.
For O=C1NS(=O)(=O)c2cc(O)ccc21 [Z, 6-hydroxy-1,2-benzisothiazol-3(2H)-one-1,1-dioxide, reference compound], the “taste profile compared with saccharose” value (taste testers [1]) was “not even approached”, the After taste (taste testers [1]; 1:10000, 10 determinations) was 29 and the Percentage bitter (taste testers [1]; 1:10000, 10 determinations) was 7%. The Percentage other taste (taste testers [1]; 1:10000, 10 determinations) was 12%, the Percentage sweet (taste testers [1]; 1:10000, 10 determinations) was 81% and the “Relative sweetening power” value (taste testers [2]) was 140. For the same compound, the “Average value of evaluation points” value (taste testers [3]; concentration 1:25000) was 1.4 points, the “Average value of evaluation points” value (taste testers [3]; concentration 1:50000) was 0.6 points and the “Average value of evaluation points” value (taste testers [3]; concentration 1:100000) was 0.0 points.
Work on O=C1NS(=O)(=O)c2cccc(O)c21.[Na] [sodium salt] yielded a change in maximum aggregation rate vs control at 100 µM (thrombocyte aggregation) of 0%.
